Data as given in US6579892B1, “Triazole compounds with dopamine-D3-receptor affinity” (Abbott Laboratories, priority 1999, dated 2003).
Structures can show the parent of a compound that is named as a salt.

Key:
Cloned human D3-receptor = biological target: T1, Cloned human D3-receptor (Homo sapiens, UniProt P35462); assay: D3 binding test (125iodosulpiride displacement); details: negative logarithm of Ki (D3) [M]
T1 construct: host or cells: CCL 1,3 mouse fibroblasts
Description: Cloned human D3-receptor-expressing CCL 1,3 mouse fibroblasts, obtainable from Res. Biochemicals Internat. One Strathmore Rd., Natick, Mass. 01760-2418 USA, were used for the binding studies.
The D3-expressing cells were multiplied in RPMI-1640 containing 10% fetal calf serum (GIBCO No. 041-32400 N); 100 U of penicillin/ml and 0.2% streptomycin (GIBO BRL, Gaithersburg, Md., USA). After 48 h, the cells were washed with PBS and incubated for 5 min with 0.05% trypsin-containing PBS. After that, the mixture was neutralized with medium and the cells were collected by centrifuging at 300 g. In order to lyse the cells, the pellet was washed briefly with lysis buffer (5 mM Tris-HCl, pH 7.4, containing 10% glycerol) and after that incubated, at 4° C. for 30 min, at a concentration of 10^7 cells/ml of lysis buffer. The cells were centrifuged at 200 g for 10 min and the pellet was stored in liquid nitrogen.
For the D3-receptor binding test, the membranes were suspended in incubation buffer (50 mM Tris-HCl, pH 7.4, containing 120 mM NaCl, 5 mM KCl, 2 mM CaCl2, 2 mM MgCl2, 10 μM quinolinol, 0.1% ascorbic acid and 0.1% BSA), at a concentration of approx. 10^6 cells/250 μl of test mixture, and incubated at 30° C. […] 0.1 nM ^125iodosulpiride in the presence and absence of the test substance. The nonspecific binding was determined using 10^−6 M spiperone.
After 60 min, the free radioligand and the bound radioligand were separated by filtering through GF/B glass fiber filters (Whatman, England) on a Skatron cell harvester (Skatron, Lier, Norway), and the filters were washed with ice-cold Tris-HCl buffer, pH-7.4. The radioactivity which had collected on the filters was quantified using a Packard 2200 CA liquid scintillation counter.
The Ki values were determined by means of nonlinear regression analysis using the LIGAND program.

[1] = biological target: T2, human dopamine D2A receptors (Homo sapiens, UniProt P14416); assay: D2 binding test (low affinity state, 125I-spiperone); details: ratio Ki(D2)/Ki(D3)
T2 construct: expressed in transfected cells; host or cells: HEK-293
Description: All the media contained 100 units of penicillin […] and 100 μg/ml of streptomycin/ml. The cells were maintained at 37° C. in a moist atmosphere containing 5% CO2.
The cells were prepared for the binding studies by trypsinizing them (0.05% solution of trypsin) at room temperature for 3-5 minutes. After that, the cells were centrifuged at 250 g for 10 minutes and treated with lysis buffer (5 mM Tris-HCl, 10% glycerol, pH 7.4) at 4° C. for 30 minutes. After centrifuging at 250 g for 10 minutes, the residue was stored at −20° C. until used.
Low affinity state dopamine D2 receptor using ^125I-spiperone (81 TBq/mmol, Du Pont de Nemours, Dreieich)
The test mixtures (1 ml) consisted of 1×10^5 cells in incubation buffer (50 mM Tris, 120 mM NaCl, 5 mM KCl, 2 mM MgCl2 and 2 mM CaCl2, pH 7.4 with HCl) and […] ^125I-spiperone (total binding) or additionally 1 μM haloperidol (nonspecific binding) or test substance.
After the test mixtures had been incubated at 25° C. for 60 minutes, they were filtered through GM/B glass filters (Whatman, England) on a Skatron cell harvester (from Zinsser, Frankfurt), and the filters were washed with ice-cold 50 mM Tris-HCl buffer, pH 7.4. The radioactivity which had collected on the filters was quantified using a Packard 2200 CA liquid scintillation counter.
The results were evaluated as described in a).
The Ki values were determined by way of nonlinear regression analysis using the LIGAND program or by converting the IC50 values using the Cheng and Prusoff formula.

T1 sequence (P35462 whole entry): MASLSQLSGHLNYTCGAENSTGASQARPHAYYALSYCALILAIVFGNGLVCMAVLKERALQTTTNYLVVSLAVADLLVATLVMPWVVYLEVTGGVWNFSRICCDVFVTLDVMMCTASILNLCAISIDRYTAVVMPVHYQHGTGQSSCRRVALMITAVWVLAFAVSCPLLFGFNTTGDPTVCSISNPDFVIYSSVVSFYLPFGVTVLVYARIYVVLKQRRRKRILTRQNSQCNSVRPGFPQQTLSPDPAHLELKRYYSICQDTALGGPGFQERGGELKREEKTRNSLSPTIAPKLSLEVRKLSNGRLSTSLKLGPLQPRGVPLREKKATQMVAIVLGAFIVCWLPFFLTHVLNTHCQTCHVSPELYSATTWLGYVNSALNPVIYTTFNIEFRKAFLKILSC
T2 sequence (P14416 whole entry): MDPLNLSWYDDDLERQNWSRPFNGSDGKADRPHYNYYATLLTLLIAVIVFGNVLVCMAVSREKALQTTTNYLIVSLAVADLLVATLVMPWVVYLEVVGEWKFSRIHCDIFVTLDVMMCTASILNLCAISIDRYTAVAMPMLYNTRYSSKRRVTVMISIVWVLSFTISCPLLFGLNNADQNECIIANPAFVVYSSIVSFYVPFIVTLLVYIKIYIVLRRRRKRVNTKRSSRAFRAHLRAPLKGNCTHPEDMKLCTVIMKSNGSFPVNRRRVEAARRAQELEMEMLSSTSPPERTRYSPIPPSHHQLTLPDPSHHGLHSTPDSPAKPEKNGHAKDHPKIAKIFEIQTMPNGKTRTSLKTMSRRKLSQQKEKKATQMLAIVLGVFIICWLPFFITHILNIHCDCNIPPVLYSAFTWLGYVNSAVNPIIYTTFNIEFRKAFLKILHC

| Compound | melting point | Selectivity (Ki(D2)/Ki(D3)) [1] | other results |
| --- | --- | --- | --- |
| Cl.Cn1c(SCCCNCC2CCc3cc(Br)ccc3C2)nnc1-c1ccccc1 (stereo not drawn) | 88 °C (dec.) | – | – |
| Cc1ncsc1-c1nnc(SCCCNCCCC2CCc3ccc(F)cc32)n1C.Cl (stereo not drawn) | 123 °C | – | – |
| COc1cc2c(cc1OC)C(NCCCSc1nnc(-c3ccccc3)n1C)CC2.Cl (stereo not drawn) | 201 to 202 °C | – | – |
| 3-[3-(6-Methyl-1,2,3,4-tetrahydronaphth-2-ylmethylamino)propylmercapto]-4-methyl-5-phenyl-1,2,4(4H)-triazole [Example 14] | – | 46 | pKi (D3) (Cloned human D3-receptor): 7.82 |
| 3-[3-(N-(Indan-2-yl)propylamino)propylmercapto]-4-methyl-5-phenyl-1,2,4(4H)-triazole Fumarate [Example 1] | – | 71 | pKi (D3) (Cloned human D3-receptor): 9.05 |
| COc1ccc2c(c1)CC(CCCNCCCSc1nnc(-c3ccccc3)n1C)CC2 (stereo not drawn) (as salt: HCl) [Example 18, 3-[3-(N-(7-Methoxy-1,2,3,4-tetrahydronaphth-2-yl)propylamino)propylmercapto]-4-methyl-5-phenyl-1,2,4(4H)-triazole] | 92 to 95 °C | – | – |
| CCOC(=O)c1nnc(SCCCNC2Cc3ccccc3C2)n1C (as salt: HCl) [Example 25, Ethyl-5-{[3-(indan-2-ylamino)propyl]mercapto}-4-methyl-1,2,4(4H)-triazole-3-carboxylate] | 135 to 139 °C | – | – |
| Cc1ccc2c(c1)CCC(NCCCSc1nnc(-c3ccccc3)n1C)C2 (stereo not drawn) [Example 4, 3-[3-(6-Methyl-1,2,3,4-tetrahydronaphth-2-ylamino)propylmercapto]-4-methyl-5-phenyl-1,2,4(4H)-triazole] | 69 to 73 °C | – | – |
| CCCN(CCCSc1nnc(-c2scnc2C)n1C)C1CCc2ccc(OC)cc2C1 (stereo not drawn) [Example 26, 3-[3-(N-(7-Methoxy-1,2,3,4-tetrahydronaphth-2-yl)-propylamino)propylmercapto]-4-methyl-5-(4-methyl-1,3-thiazol-5-yl)-1,2,4(4H)-triazole] | – | 157 | Ki (Cloned human D3-receptor; read-out: pKi (D3) (converted)): 8.71e-09 M |
